Test results taken from patent US8822449B2, “Substituted aminoindanes and analogs thereof, and the pharmaceutical use thereof” (Sanofi, priority 2008, dated 2014).

molecular target: T1, sodium-proton exchanger of subtype 3 (NHE3) (Homo sapiens, UniProt P48764); assay: Recovery of intracellular pH (pHi) after acidification in LAP1 cells stably expressing NHE3 (BCECF fluorescence, FLIPR); format: cell-based; conditions: LAP1 cells stably expressing NHE3; pH recovery after acidification; range 1 is % inhibition at 10 μM; read-out: Activity range (inhibitory effect on NHE3)
T1 construct: expressed in transfected cells
T1 sequence (P48764 26-834): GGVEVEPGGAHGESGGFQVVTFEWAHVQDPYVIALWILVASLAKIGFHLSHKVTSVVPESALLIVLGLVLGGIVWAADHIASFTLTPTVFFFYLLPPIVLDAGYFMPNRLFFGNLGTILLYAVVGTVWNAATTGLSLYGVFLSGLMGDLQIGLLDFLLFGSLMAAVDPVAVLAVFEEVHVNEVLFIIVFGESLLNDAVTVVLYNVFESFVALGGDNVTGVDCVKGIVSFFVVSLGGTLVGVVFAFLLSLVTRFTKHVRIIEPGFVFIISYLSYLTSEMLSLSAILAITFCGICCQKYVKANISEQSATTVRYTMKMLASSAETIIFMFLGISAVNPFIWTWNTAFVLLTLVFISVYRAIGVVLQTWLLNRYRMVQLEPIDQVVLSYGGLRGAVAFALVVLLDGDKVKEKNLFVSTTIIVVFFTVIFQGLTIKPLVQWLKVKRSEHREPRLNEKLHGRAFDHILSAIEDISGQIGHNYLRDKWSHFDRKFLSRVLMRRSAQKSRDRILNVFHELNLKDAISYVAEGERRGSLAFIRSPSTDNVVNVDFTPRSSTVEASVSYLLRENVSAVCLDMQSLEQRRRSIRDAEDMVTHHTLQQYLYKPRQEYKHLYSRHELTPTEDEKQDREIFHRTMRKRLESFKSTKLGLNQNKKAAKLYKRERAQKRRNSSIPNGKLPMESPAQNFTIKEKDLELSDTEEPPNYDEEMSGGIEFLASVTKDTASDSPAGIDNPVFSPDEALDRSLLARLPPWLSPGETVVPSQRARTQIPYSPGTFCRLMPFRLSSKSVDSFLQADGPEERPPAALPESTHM

Row | IC50 | inhibition at 10 µM | SMILES
1 | < 1000 nM |  | Cc1nnc(C)n1-c1ccc(O[C@H]2c3cc(Cl)cc(Cl)c3C[C@@H]2N2CC[C@H](O)C2)c(F)c1 [Example 200, (S)-1-{(1S,2S)-4,6-dichloro-1-[4-(3,5-dimethyl-[1,2,4]triazol-4-yl)-2-fluorophenoxy]indan-2-yl}pyrrolidin-3-ol]
2 | < 1000 nM |  | CN1CCN(c2ccc(F)c(O[C@H]3c4cc(Cl)cc(Cl)c4C[C@@H]3N3CC[C@@H](O)C3)c2)C1=O [Example 314, 1-{3-[(1S,2S)-4,6-dichloro-2-((R)-3-hydroxypyrrolidin-1-yl)indan-1-yloxy]-4-fluorophenyl}-3-methylimidazolidin-2-one]
3 | < 1000 nM |  | CC(=O)Nc1cccc(O[C@H]2c3cc(Cl)ccc3C[C@@H]2N2CCCC2)c1 (racemic) [Example 658, N-[3-(rac-trans-(1,2)-6-chloro-2-pyrrolidin-1-ylindan-1-yloxy)phenyl]acetamide]
4 | 1000 to 10000 nM |  | N#Cc1csc(-c2ccc(O[C@@H]3c4ccccc4C[C@H]3N3CCC[C@@H](N)C3)cc2)n1 (racemic) [Example 381, 2-{4-[rac-trans-(1,2)-2-((R)-3-aminopiperidin-1-yl)indan-1-yloxy]phenyl}thiazole-4-carbonitrile]
5 | 1000 to 10000 nM |  | Fc1ccc(O[C@@H]2c3ccccc3C[C@H]2N2C[C@H]3CNC[C@H]3C2)c(F)c1 (racemic) [Example 9, 2-[rac-trans-(1,2)-1-(2,4-difluorophenoxy)indan-2-yl]octahydropyrrolo[3,4-c]pyrrole]
6 | < 1000 nM |  | O=C1CCCN1c1ccc(Cl)c(O[C@H]2c3cc(Cl)cc(F)c3C[C@@H]2N2CC[C@@H](O)C2)c1 [Example 341, 1-{4-chloro-3-[(1S,2S)-6-chloro-4-fluoro-2-((R)-3-hydroxypyrrolidin-1-yl)indan-1-yloxy]phenyl}pyrrolidin-2-one]
7 | 1000 to 10000 nM |  | N[C@H]1CCCN([C@H]2CCc3ccccc3[C@@H]2Oc2ccc(-n3cncn3)cc2)C1 (racemic) [Example 171, (S)-1-[rac-trans-(1,2)-1-(4-[1,2,4]triazol-1-ylphenoxy)-1,2,3,4-tetrahydronaphthalen-2-yl]piperidin-3-ylamine]
8 | 1000 to 10000 nM |  | Cc1nnc(C)n1-c1ccc(O[C@H]2c3c(Cl)sc(Cl)c3CC[C@@H]2N2CCCC2)cc1 (racemic) [Example 496, 4-[4-(1,3-dichloro-5-pyrrolidin-1-yl-4,5,6,7-tetrahydrobenzo[c]thiophen-4-yloxy)phenyl]-3,5-dimethyl-4H-[1,2,4]triazole]
9 | 1000 to 10000 nM |  | CC(=O)Nc1cccc(O[C@H]2c3ccc(F)cc3C[C@@H]2N2CCCC2)c1 (racemic) [Example 656, N-[3-(rac-trans-(1,2)-5-fluoro-2-pyrrolidin-1-ylindan-1-yloxy)phenyl]acetamide]
10 |  | 20 to 50% | CS(=O)(=O)c1ccc(O[C@@H]2c3ccccc3C[C@@H]2n2ccnc2)cc1 (racemic) [Example 261, 1-[rac-cis-(1,2)-1-(4-methanesulfonylphenoxy)indan-2-yl]-1H-imidazole]
11 | 1000 to 10000 nM |  | N#Cc1ccc(O[C@@H]2c3ccccc3C[C@H]2N2C[C@H]3CNC[C@H]3C2)cc1F (racemic) [Example 397, 2-fluoro-4-[rac-trans-(1,2)-2-(hexahydropyrrolo[3,4-c]pyrrol-2-yl)indan-1-yloxy]benzonitrile]
12 |  | 20 to 50% | Clc1ccc2cccc(O[C@H]3c4ccccc4CC[C@@H]3N3CCOCC3)c2n1 (racemic) [Example 395, 2-chloro-8-(rac-trans-(1,2)-2-morpholin-4-yl-1,2,3,4-tetrahydronaphthalen-1-yloxy)quinoline]
13 | 1000 to 10000 nM |  | CCCc1ccc(NC(C)=O)cc1O[C@H]1c2ccccc2CC[C@@H]1N1CCC[C@@H](N)C1 (racemic) [Example 675, N-{3-[rac-trans-(1,2)-2-((R)-3-aminopiperidin-1-yl)-1,2,3,4-tetrahydronaphthalen-1-yloxy]-4-propylphenyl}acetamide]
14 |  | 20 to 50% | Cc1nc2cc(O[C@H]3c4cc(Cl)cc(Cl)c4C[C@@H]3N3CC[C@@H](O)C3)ccc2s1 [Example 96, (R)-1-[trans-(1S,2S)-4,6-dichloro-1-(2-methylbenzothiazol-5-yloxy)indan-2-yl]pyrrolidin-3-ol]
15 | < 1000 nM |  | CS(=O)(=O)c1ccc(O[C@@H]2c3cc(Cl)cc(F)c3C[C@H]2N2CCC[C@@H](N)C2)cc1 (racemic) [Example 93, (R)-1-[rac-trans-(1,2)-6-chloro-4-fluoro-1-(4-methanesulfonylphenoxy)indan-2-yl]piperidin-3-ylamine]
16 | < 1000 nM |  | CS(=O)(=O)c1ccccc1O[C@H]1c2cc(Cl)cc(Cl)c2C[C@@H]1N1CCC[C@@H](N)C1 [Example 25, (R)-1-[(1S,2S)-4,6-dichloro-1-(2-methanesulfonylphenoxy)indan-2-yl]piperidin-3-ylamine]
17 | 1000 to 10000 nM |  | CC(=O)Nc1cccc(O[C@H]2c3cc(Cl)cc(Cl)c3C[C@@H]2N(C)C)c1 (racemic) [Example 645, N-[3-(rac-trans-(1,2)-4,6-dichloro-2-dimethylaminoindan-1-yloxy)phenyl]acetamide]
18 | 1000 to 10000 nM |  | NC(=O)c1cccc(O[C@@H]2c3ccccc3C[C@H]2N2CCC(N)C2)c1 (mixture of isomers) [Example 415, 3-[rac-trans-(1,2)-2-(3-aminopyrrolidin-1-yl)indan-1-yloxy]benzamide]
19 | 1000 to 10000 nM |  | O=c1oc2ccc(O[C@@H]3c4ccccc4C[C@H]3N3C[C@H]4CNC[C@H]4C3)cc2s1 (racemic) [Example 577, 5-[rac-trans-(1,2)-2-(hexahydropyrrolo[3,4-c]pyrrol-2-yl)indan-1-yloxy]benzo[1,3]oxathiol-2-one]
20 |  | 20 to 50% | N#Cc1ccc(S[C@H]2c3ccccc3C[C@@H]2N2CCCC2)cc1 [Example 455, 4-((1S,2S)-2-pyrrolidin-1-ylindan-1-ylsulfanyl)benzonitrile]
21 |  | 20 to 50% | COCCc1ccc(O[C@H]2c3ccccc3CC[C@@H]2N2CCC[C@H](N)C2)cc1 (racemic) [Example 202, (S)-1-{rac-trans-(1,2)-1-[4-(2-methoxyethyl)phenoxy]-1,2,3,4-tetrahydronaphthalen-2-yl}piperidin-3-ylamine]
22 | 1000 to 10000 nM |  | N#Cc1ccc(O[C@@H]2c3ccccc3C[C@H]2N2CCC(N)C2)c(Cl)c1 (mixture of isomers) [Example 543, 4-[rac-trans-(1,2)-2-(3-aminopyrrolidin-1-yl)indan-1-yloxy]-3-chlorobenzonitrile]
23 | 1000 to 10000 nM |  | Clc1ccc(O[C@@H]2c3ccccc3C[C@H]2N2C[C@H]3CNC[C@H]3C2)cn1 (racemic) [Example 18, 2-[rac-trans-(1,2)-1-(6-chloropyridin-3-yloxy)indan-2-yl]octahydropyrrolo[3,4-c]pyrrole]
24 | < 1000 nM |  | CS(=O)(=O)c1ccc(O[C@H]2c3cc(F)cc(Cl)c3C[C@@H]2N2CCNCC2)cc1 (racemic) [Example 283, 1-[rac-trans-(1,2)-4-chloro-6-fluoro-1-(4-methanesulfonylphenoxy)indan-2-yl]piperazine]
25 | 1000 to 10000 nM |  | CS(=O)(=O)c1ccc(O[C@H]2c3ccccc3C[C@@H]2NCC2CCCC2)cc1 (racemic) [Example 705, Cyclopentylmethyl-[rac-trans-(1,2)-1-(4-methanesulfonyl-phenoxy)-indan-2-yl]-amine]
26 |  | 20 to 50% | COC(=O)c1ccc(O[C@H]2c3ccccc3CC[C@@H]2N2CCC[C@H](N)C2)c(Cl)c1 (racemic) [Example 531, 4-[rac-trans-(1,2)-2-((S)-3-aminopiperidin-1-yl)-1,2,3,4-tetrahydronaphthalen-1-yloxy]-3-chlorobenzoic acid methyl ester]
27 | 1000 to 10000 nM |  | NCC1CCN([C@@H]2Cc3ccccc3[C@H]2Oc2ccnc3ccccc23)CC1 (racemic) [Example 622, C-{1-[rac-trans-(1,2)-1-(quinolin-4-yloxy)indan-2-yl]piperidin-4-yl}methylamine]
28 | < 1000 nM |  | Cn1ccn(-c2cccc(O[C@H]3c4cc(Cl)cc(Cl)c4C[C@@H]3N3CCNCC3)c2)c1=O (racemic) [Example 257, 1-[3-(rac-trans-(1,2)-4,6-dichloro-2-piperazin-1-ylindan-1-yloxy)phenyl]-3-methyl-1,3-dihydroimidazol-2-one]
29 |  | 20 to 50% | CC(C)c1nc(C(C)(C)C)cn1-c1ccc(O[C@H]2c3cc(Cl)cc(F)c3C[C@@H]2N2CC[C@@H](O)C2)cc1 [Example 724, (R)-1-{trans-(1S,2S)-1-[4-(4-tert-Butyl-2-isopropyl-imidazol-1-yl)-phenoxy]-6-chloro-4-fluoro-indan-2-yl}-pyrrolidin-3-ol]

Row | SMILES | IC50 | inhibition at 10 µM
30 | O=S(=O)(NCC(F)(F)F)c1ccc(O[C@@H]2c3ccccc3C[C@H]2N2CCCC2)cc1 (racemic) [Example 469, 4-(rac-trans-(1,2)-2-pyrrolidin-1-ylindan-1-yloxy)-N-(2,2,2-trifluoroethyl)benzenesulfonamide] | 1000 to 10000 nM | 
